Assays:
[1] = XRPD crystal form before and after milling (Example 8); type: physicochemical; conditions: input vs milled with F127
Excerpt: Particles were isolated by centrifugation, then resuspended in H2O and then recentrifuged. The wet sample was resuspended in H2O and deposited thinly and evenly onto a flat zero background sample holder (Rigaku 906165). The sample was allowed to air dry.
Milligram amounts were packed as an evenly thin layer of solid onto a zero background sample holder (Rigaku 906165).
X-ray Powder Diffraction (XRPD) patterns were obtained using a Rigaku MiniFlex 600 benchtop x-ray diffractometer equipped with a Cu X-ray tube (Cu/Kα=1.54059 Å), a six-position sample changer and a D/teX Ultra detector. […] Diffraction patterns were viewed and analyzed using PDXL analysis software provided by the instrument manufacturer. A reference standard silicon powder (NIST Standard Reference Material 640d) generated a peak at 28.43° and 28.45° two theta when samples were prepared as suspension in H2O (to simulate Procedure A) and Procedure B, respectively.
All input crystalline forms were arbitrarily designated as “A” forms. New forms that emerged after milling, if any, were sequentially designated as “B”, “C”, etc.

[2] = DLS size and PDI of cortisone and hydrocortisone milled with F127 (Example 7); type: physicochemical; conditions: suspension milled with 5% F127 in PBS pH 7.1, 25 hours
Method: A milling procedure was employed in which aqueous dispersions containing coarse compound particles were individually milled with F127 at near-neutral pH buffer using a grinding medium. Briefly, a slurry containing 5% of compound and 5% F127 in PBS (0.0067 M PO43), pH 7.1 was added to an equal bulk volume of 1-mm ceria-stabilized zirconium oxide beads in a glass vial (e.g., 2 mL of slurry per 2 mL of beads). A magnetic stir bar was used to agitate the beads, stirring at approximately 500 rpm at ambient conditions for 25 hours.
The milled suspensions were subjected to dynamic light scattering (DLS) measurements to determine particle size and polydispersity index (PDI, a measure of the width of the particle size distribution). The samples for DLS measurements were buffered with HyClone™ PBS (phosphate-buffered saline) to produce isotonic samples that have a physiologically relevant pH.

Crystal form change after milling of "A" forms? [1]	PDI [2]	Size (Z-average) [2]	SMILES
No	0.074	225 nm	C[C@]12CCC(=O)C=C1CC[C@@H]1[C@@H]2C(=O)C[C@@]2(C)[C@H]1CC[C@]2(O)C(=O)CO [Compound 1, Cortisone]
No	0.258	357 nm	C[C@]12CCC(=O)C=C1CC[C@@H]1[C@@H]2[C@@H](O)C[C@@]2(C)[C@H]1CC[C@]2(O)C(=O)CO [Compound 2, hydrocortisone]
